# Laboratory results published in patent US8765773B2, “Substituted hydroxamic acids and uses thereof” (Millennium Pharmaceuticals, Inc., priority 2010, dated 2014).
# Biological target: T1, purified human HDAC6 (Homo sapiens, UniProt Q9UBN7)
# T1 construct: purchased BPS Bioscience 5006
# T1 sequence (Q9UBN7 1-1215): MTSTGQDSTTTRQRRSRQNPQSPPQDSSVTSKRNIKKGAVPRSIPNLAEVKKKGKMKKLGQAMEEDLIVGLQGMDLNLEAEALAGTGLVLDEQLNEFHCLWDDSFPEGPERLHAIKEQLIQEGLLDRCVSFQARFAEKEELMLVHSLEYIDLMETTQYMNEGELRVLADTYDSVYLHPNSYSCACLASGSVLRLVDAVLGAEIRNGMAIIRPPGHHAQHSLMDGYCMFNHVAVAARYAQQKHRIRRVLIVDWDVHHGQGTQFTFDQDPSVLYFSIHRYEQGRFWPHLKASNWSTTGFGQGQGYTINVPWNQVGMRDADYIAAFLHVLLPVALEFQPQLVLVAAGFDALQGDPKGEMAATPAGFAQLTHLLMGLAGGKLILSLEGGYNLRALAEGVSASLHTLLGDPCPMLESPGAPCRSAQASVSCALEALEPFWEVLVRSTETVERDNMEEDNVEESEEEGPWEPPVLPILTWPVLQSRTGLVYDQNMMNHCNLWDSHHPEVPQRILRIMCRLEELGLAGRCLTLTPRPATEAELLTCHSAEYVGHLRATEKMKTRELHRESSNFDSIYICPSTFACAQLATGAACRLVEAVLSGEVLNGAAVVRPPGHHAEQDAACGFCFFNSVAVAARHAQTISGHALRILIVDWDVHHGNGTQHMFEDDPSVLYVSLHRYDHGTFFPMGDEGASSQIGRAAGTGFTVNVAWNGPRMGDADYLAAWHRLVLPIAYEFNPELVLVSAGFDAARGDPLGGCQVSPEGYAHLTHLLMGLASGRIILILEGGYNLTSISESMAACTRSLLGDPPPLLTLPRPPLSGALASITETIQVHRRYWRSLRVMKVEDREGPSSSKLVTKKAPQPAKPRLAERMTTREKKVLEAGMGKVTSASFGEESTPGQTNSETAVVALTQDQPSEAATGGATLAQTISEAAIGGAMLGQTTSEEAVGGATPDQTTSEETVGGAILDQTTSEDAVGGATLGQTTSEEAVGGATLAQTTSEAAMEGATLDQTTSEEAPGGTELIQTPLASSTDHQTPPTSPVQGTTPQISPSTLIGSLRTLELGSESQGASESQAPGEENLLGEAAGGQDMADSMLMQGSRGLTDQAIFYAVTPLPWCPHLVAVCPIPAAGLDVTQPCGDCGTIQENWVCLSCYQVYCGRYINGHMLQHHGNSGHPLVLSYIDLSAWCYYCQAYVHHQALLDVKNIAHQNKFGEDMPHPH
# Assay: HDAC6 Enzyme Assay
# Assay type: biochemical
# Conditions: compound concentration 0.37 μM, read-out: Percent Inhibition
# Experimental: To measure the inhibition of HDAC6 activity, purified human HDAC6 (BPS Bioscience; Cat. No. 5006) is incubated with substrate Ac-Arg-Gly-Lys(Ac)-AMC peptide (Bachem Biosciences; Cat. No. I-1925) for 1 hour at 30° C. in the presence of test compounds or vehicle DMSO control. The reaction is stopped with the HDAC inhibitor trichostatin A (Sigma; Cat. No. T8552) and the amount of Arg-Gly-Lys-AMC generated is quantitated by digestion with trypsin (Sigma; Cat. No. T1426) and subsequent measurement of the amount of AMC released using a fluorescent plate reader (Pherastar; BMG Technologies) set at Ex 340 nm and Em 460 nm. Concentration response curves are generated by calculating the fluorescence increase in test compound-treated samples relative to DMSO-treated controls, and percentage inhibition values at a single concentration or enzyme inhibition (IC50) values are determined from those curves. One skilled in the art will appreciate that the values generated either as percentage inhibition at a single concentration or IC50 values are subject to experimental variation.
row,SMILES,inhibition at 0.37 µM
1,"CC(C)c1ccc(-c2cccc(Cn3cnc4ccc(C(=O)NO)cc4c3=O)c2)cc1 [Compound I-32, N-hydroxy-3-[(4′-isopropylbiphenyl-3-yl)methyl]-4-oxo-3,4-dihydroquinazoline-6-carboxamide]",83.6%
2,"Cc1ccccc1Cc1nc2cc(C(=O)NO)ccc2c(=O)n1Cc1ccc(C(F)(F)F)cc1 [Compound I-35, N-hydroxy-2-(2-methylbenzyl)-4-oxo-3-[4-(trifluoromethyl)benzyl]-3,4-dihydroquinazoline-7-carboxamide]",66%
3,"O=C(NO)c1ccc2ncn(Cc3cccc(-c4cccc(OC(F)(F)F)c4)c3)c(=O)c2c1 [Compound I-37, N-hydroxy-4-oxo-3-{[3′-(trifluoromethoxy)biphenyl-3-yl]methyl}-3,4-dihydroquinazoline-6-carboxamide]",89.8%
4,"O=C(NO)c1ccc2c(=O)n(Cc3ccc(C(F)(F)F)cc3)c(CCc3ccccc3)nc2c1 [Compound I-39, N-hydroxy-4-oxo-2-(2-phenylethyl)-3-[4-(trifluoromethyl)benzyl]-3,4-dihydroquinazoline-7-carboxamide]",84.5%
5,"O=C(NO)c1ccc2ncn(CCN3CCCCC3)c(=O)c2c1 [Compound I-41, N-hydroxy-4-oxo-3-(2-piperidin-1-ylethyl)-3,4-dihydroquinazoline-6-carboxamide]",73.2%
6,"O=C(NO)c1ccc2ccn(CCN(C(=O)C3CC3)c3cccc(-n4cccn4)c3)c(=O)c2c1 [Compound I-45, 2-(2-{(cyclopropylcarbonyl)[3-(1H-pyrazol-1-yl)phenyl]amino}ethyl)-N-hydroxy-1-oxo-1,2-dihydroisoquinoline-7-carboxamide]",89.6%
7,"O=C(NO)c1ccc2ncn(Cc3cccc(-c4cccc(C(F)(F)F)c4)c3)c(=O)c2c1 [Compound I-46, N-hydroxy-4-oxo-3-{[3′-(trifluoromethyl)biphenyl-3-yl]methyl}-3,4-dihydroquinazoline-6-carboxamide]",94.4%
8,"O=C(NO)c1ccc2c(=O)n(Cc3ccc(C(F)(F)F)cc3)c(CC3CCCCC3)nc2c1 [Compound I-53, 2-(cyclohexylmethyl)-N-hydroxy-4-oxo-3-[4-(trifluoromethyl)benzyl]-3,4-dihydroquinazoline-7-carboxamide]",65.5%

# Same assay, conditions: compound concentration 0.412 μM, read-out: Percent Inhibition
row,SMILES,inhibition at 0.412 µM
1,"O=C(NO)c1ccc2ccn(Cc3cccc(OCc4ccccc4)c3)c(=O)c2c1 [Compound I-31, 2-[3-(benzyloxy)benzyl]-N-hydroxy-1-oxo-1,2-dihydroisoquinoline-7-carboxamide]",89.5%
2,"Cc1cc(C)cc(Cn2ccc3ccc(C(=O)NO)cc3c2=O)c1 [Compound I-33, 2-(3,5-dimethylbenzyl)-N-hydroxy-1-oxo-1,2-dihydroisoquinoline-7-carboxamide]",94.4%
3,"COc1ccc(NCCCn2ccc3ccc(C(=O)NO)cc3c2=O)cc1 [Compound I-34, N-hydroxy-2-{3-[(4-methoxyphenyl)amino]propyl}-1-oxo-1,2-dihydroisoquinoline-7-carboxamide]",94.3%
4,"O=C(NO)c1ccc2ncn(Cc3ccccc3C(F)(F)F)c(=O)c2c1 [Compound I-36, N-hydroxy-4-oxo-3-[2-(trifluoromethyl)benzyl]-3,4-dihydroquinazoline-6-carboxamide]",91.8%
5,"Cc1ccccc1OCCCn1ccc2ccc(C(=O)NO)cc2c1=O [Compound I-38, N-hydroxy-2-[3-(2-methylphenoxy)propyl]-1-oxo-1,2-dihydroisoquinoline-7-carboxamide]",96.1%
6,"CC(C)Nc1nc2cc(C(=O)NO)ccc2c(=O)n1-c1ccc(Cl)cc1 [Compound I-40, 3-(4-chlorophenyl)-N-hydroxy-2-(isopropylamino)-4-oxo-3,4-dihydroquinazoline-7-carboxamide]",44.5%
7,"O=C(NO)c1ccc2ccn(CCCOc3ccc4c(c3)CCC4)c(=O)c2c1 [Compound I-42, 2-[3-(2,3-dihydro-1H-inden-5-yloxy)propyl]-N-hydroxy-1-oxo-1,2-dihydroisoquinoline-7-carboxamide]",94.4%
8,"O=C(NO)c1ccc2c(=O)n(Cc3cccc(Cl)c3)cnc2c1 [Compound I-43, 3-(3-chlorobenzyl)-N-hydroxy-4-oxo-3,4-dihydroquinazoline-7-carboxamide]",96.1%
9,"CCCC(C)n1ccc2ccc(C(=O)NO)cc2c1=O (centres unmarked) [Compound I-44, N-hydroxy-2-(1-methylbutyl)-1-oxo-1,2-dihydroisoquinoline-7-carboxamide]",91.8%
10,"Cn1c(NCc2ccncc2)nc2cc(C(=O)NO)ccc2c1=O [Compound I-47, N-hydroxy-3-methyl-4-oxo-2-[(pyridin-4-ylmethyl)amino]-3,4-dihydroquinazoline-7-carboxamide]",44.2%
11,"COc1ccccc1OCCn1ccc2ccc(C(=O)NO)cc2c1=O [Compound I-48, N-hydroxy-2-[2-(2-methoxyphenoxy)ethyl]-1-oxo-1,2-dihydroisoquinoline-7-carboxamide]",97%
12,"COc1ccc(Nc2nc3cc(C(=O)NO)ccc3c(=O)n2C)cc1 [Compound I-49, N-hydroxy-2-[(4-methoxyphenyl)amino]-3-methyl-4-oxo-3,4-dihydroquinazoline-7-carboxamide]",55%
13,"O=C(NO)c1ccc2ccn(Cc3ccc(F)cc3Cl)c(=O)c2c1 [Compound I-50, 2-(2-chloro-4-fluorobenzyl)-N-hydroxy-1-oxo-1,2-dihydroisoquinoline-7-carboxamide]",94.9%
14,"CS(=O)(=O)c1ccccc1OCCCn1ccc2ccc(C(=O)NO)cc2c1=O [Compound I-51, N-hydroxy-2-{3-[2-(methylsulfonyl)phenoxy]propyl}-1-oxo-1,2-dihydroisoquinoline-7-carboxamide]",96.2%
15,"O=C(NO)c1ccc2ccn(CCCOc3ccccc3C(F)(F)F)c(=O)c2c1 [Compound I-52, N-hydroxy-1-oxo-2-{3-[2-(trifluoromethyl)phenoxy]propyl}-1,2-dihydroisoquinoline-7-carboxamide]",90%
16,"Cc1ccc(Cn2ccc3ccc(C(=O)NO)cc3c2=O)cc1F [Compound I-54, 2-(3-fluoro-4-methylbenzyl)-N-hydroxy-1-oxo-1,2-dihydroisoquinoline-7-carboxamide]",94.5%
17,"O=C(NO)c1ccc2ncn(Cc3cccc(OC(F)(F)F)c3)c(=O)c2c1 [Compound I-55, N-hydroxy-4-oxo-3-[3-(trifluoromethoxy)benzyl]-3,4-dihydroquinazoline-6-carboxamide]",93.9%
18,"CC(C)(C)OC(=O)N1CCC(NCc2nc3cc(C(=O)NO)ccc3c(=O)[nH]2)CC1 [Compound I-56, tert-butyl 4-[({7-[(hydroxyamino)carbonyl]-4-oxo-3,4-dihydroquinazolin-2-yl}methyl)amino]piperidine-1-carboxylate]",69%
19,"Cc1ccn(CCn2cnc3ccc(C(=O)NO)cc3c2=O)n1 [Compound I-57, N-hydroxy-3-[2-(3-methyl-1H-pyrazol-1-yl)ethyl]-4-oxo-3,4-dihydroquinazoline-6-carboxamide]",77.4%
20,"CC(C)(C)OC(=O)N1CCC(CCn2ccc3ccc(C(=O)NO)cc3c2=O)CC1 [Compound I-58, tert-butyl 4-{2-[7-[(hydroxyamino)carbonyl]-1-oxoisoquinolin-2(1H)-yl]ethyl}piperidine-1-carboxylate]",80.4%
21,"O=C(NO)c1ccc2c(=O)n(CC3CC3)cnc2c1 [Compound I-59, 3-(cyclopropylmethyl)-N-hydroxy-4-oxo-3,4-dihydroquinazoline-7-carboxamide]",80.7%
